Results taken from the METLIN SMRT retention time set (Domingo-Almenara et al. 2019).

Test: gradient 5% acetonitrile 3 min, to 50% in 2 min, to 85% in 15 min, held 3 min, 100 µL/min
Conditions: column: Zorbax Extend-C18 2.1 x 50 mm; eluents: water / acetonitrile, 0.1% formic acid
Method in brief: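 A Zorbax Extend-C18 column (2.1 × 50 mm, 1.8 μm) run at 100 μL/min with water and acetonitrile, both containing 0.1% formic acid, separated mixtures of ~100 pure standards. The HPLC was coupled to a quadrupole time-of-flight mass spectrometer operated in positive and negative ionization mode, with dead and dwell volumes of 40 μL and 900 μL. Each retention time was taken from a computationally picked adduct peak that was then manually inspected.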

| Structure (SMILES) | RP-LC retention time [s] |
| --- | --- |
| CCN(CC)S(=O)(=O)c1cccc(-c2nnc(-c3ccc(OC)c(OC)c3)o2)c1 | 950 |
| O=C(Cn1ccc2ccc(N3CCOCC3)nc21)NCc1ccccc1Cl | 905 |
| O=C(Nc1ccc2c(c1)OCCO2)c1cn2c(n1)COCC2 | 606 |
| Cc1ccccc1CNC(=O)C1(C)CCCN(C(=O)Nc2ccc3c(c2)OCCO3)C1 (stereo not given) | 846 |
| CCC(CC)NC(=O)C1CCCCC(=O)N1 (stereo not given) | 652 |
| Cc1nccn1CC(=O)N1CCCC(OCc2nc(C(C)C)no2)C1 (stereo not given) | 596 |
| COc1cc(OC)cc(-c2nnc(Cc3nc(-c4ccc(Cl)cc4)no3)o2)c1 | 1110 |
| COc1ccc(-c2c(C)noc2NC(C)=O)cc1S(=O)(=O)Nc1ccc(Cl)cc1F | 807 |
| Cn1nc(-c2nnc(-c3ccccc3F)o2)c2c1CCN(S(=O)(=O)c1ccccc1F)C2 | 903 |
| CN1C(=O)C(CC(=O)Nc2cccnc2)=C2CCCCC21 (stereo not given) | 564 |
| O=C(NC1CCCCC1)c1nc(Cn2c(=O)oc3ccc(Cl)cc32)no1 | 981 |
| O=C(O)C(Cc1ccccc1)NS(=O)(=O)c1ccc(Cl)c(C(F)(F)F)c1 (stereo not given) | 887 |
| O=C(c1cn(CC(O)c2ccccc2)nn1)N1CCN(c2ccccn2)CC1 (stereo not given) | 544 |
| O=C(NCCn1ncc2c(=O)n(Cc3ccccc3F)cnc21)c1ccc2c(c1)OCO2 | 678 |
| Cc1ccc(-c2cn3c(CC(=O)Nc4cccc(C#N)c4)csc3n2)cc1C | 855 |
| CCCn1c(=O)sc2cc(S(=O)(=O)N3CCC(C(=O)Nc4ccc(OC)cc4)CC3)ccc21 | 918 |
| CCOCCCNC(=O)N1[C@H]2CC[C@@H]1c1cnc(-c3ccccc3)nc1C2 | 778 |
| COc1ccc(NC(=O)C2CCN(C(=O)C3Sc4ccccc4NC3=O)CC2)cc1 (stereo not given) | 729 |
| COc1ccc(NC(=O)Cn2c(N)nc(C)c(C)c2=O)cc1 | 595 |
| CCC(=O)N1CCN(c2nc3c(s2)CC(C(=O)Nc2cc(F)ccc2F)CC3)CC1 (stereo not given) | 633 |
| Cc1ccc(NC(=O)c2cccn2Cc2noc(C)n2)c(Cl)c1 | 945 |
| NCCC1CCN(C(=O)Nc2cc(F)cc(F)c2)CC1 | 599 |
| O=[N+]([O-])c1ccccc1CSc1nnc2sc3ccccc3n12 | 788 |

| Structure (SMILES) | RP-LC retention time [s] |
| --- | --- |
| Cc1csc(NC(=O)Cn2ccc3ccc(-c4nnc(C)o4)cc32)n1 | 716 |
| CCn1cc(CC(=O)Nc2ccc(OC)cc2)c2cccnc21 | 696 |
| COCCc1noc([C@@H]2CN(Cc3ccc(C(C)C)cc3)C[C@H]2CO)n1 | 663 |
| CCS(=O)(=O)Nc1ccc(C2(C(=O)NCc3cc(F)cc(F)c3)CCCCC2)cc1 | 972 |
| CCn1nccc1C(=O)N1CCN(c2cc(-c3ccc(Cl)cc3)[nH]n2)CC1 | 781 |
| CCC(CC)N1CCN(C(=O)c2nc(N3CCSCC3)c3cn(C)nc3n2)CC1 | 574 |
| CC(CNC(=O)CN1C(=O)C2CCCCN2c2ccc(S(=O)(=O)N(C)C)cc21)c1ccccc1 (stereo not given) | 943 |
| O=C(c1cn2c(n1)COCC2)N(Cc1ccccc1)Cc1ccco1 | 716 |
| Cc1nc(NC(=O)N2CCC[C@H]2C(N)=O)sc1-c1csc(C(C)(C)C)n1 | 776 |
| Cc1ccccc1-n1c(=O)c2sccc2n(Cc2nc(-c3cccc(Br)c3)no2)c1=O | 1110 |
| COc1cccc(OC)c1C(=O)Nc1nnc(SCc2nnc(-c3ccccc3C)o2)s1 | 888 |
| Clc1ccccc1-c1nc(N2CCCC2)c2ccccc2n1 | 696 |
| CCc1c(C(=O)O)nnn1-c1ccc2c(c1)CCC2 | 796 |
| Cc1cc(C)cc(N2CCC(NC(=O)Cc3ccc(F)cc3)C2=O)c1 (stereo not given) | 864 |
| Cc1nn(-c2ccccc2)c2ccn(CC(=O)N3CCN(c4cccc(Cl)c4)CC3)c(=O)c12 | 927 |
| Cc1ccc(N2CN(CC#N)S(=O)(=O)c3cccnc32)cc1 | 877 |
| CCn1c(CNC(=O)C2CCC2)nc2c1CN(S(=O)(=O)c1ccc(F)cc1)CC2 | 644 |
| CC(C)CCNC(=O)N1CCC(c2cc(N)on2)CC1 | 659 |
| CC1CCc2c(C(=O)NCCc3ccccc3)csc2C1 (stereo not given) | 1080 |
| O=C(c1ccc2nsnc2c1)N1CCN(S(=O)(=O)C2CC2)CC1 | 657 |
| O=c1ccc(N2CCC(NS(=O)(=O)c3ccc(F)c(F)c3)CC2)nn1CC1CC1 | 834 |
| Cn1c(N2CCCC(C(=O)NCC3CCN(CCc4cccs4)CC3)C2)cc(=O)n(C)c1=O (stereo not given) | 589 |
| O=C(Cc1ccc(-c2ccc(OCCN3CCOCC3)cc2)cn1)NCc1ccccc1 | 621 |

| Structure (SMILES) | RP-LC retention time [s] |
| --- | --- |
| CC(=O)Nc1nc(-c2ccc(C)cc2C)cs1 | 808 |
| O=C(NC1CCCC1)c1ccc2c(c1)CCN2C(=O)C1CC1 | 751 |
| CCOc1ccc(-c2noc(Cn3cnc4c(cnn4-c4ccccc4)c3=O)n2)cc1OC | 980 |
| COc1ccccc1NC(=O)NC1CCN(c2cc(C)cc(C)c2)C1=O (stereo not given) | 881 |
| O=C(c1ccc2ccnc(N3CCN(c4ccc(F)cc4)CC3)c2c1)N1CCCCCC1 | 816 |
| CCCNC(C)C(=O)Nc1c(C)csc1C(=O)OC (stereo not given) | 652 |
| CC(C)NC(=O)N1CCCC(Cn2cnc3cccnc32)C1 (stereo not given) | 610 |
| COc1ccccc1C(CNC(=O)c1cc(=O)c2cc(C)c(C)cc2o1)N(C)C (stereo not given) | 651 |
| COc1cccc(CNC(=O)c2nnc(-c3ccc(S(=O)(=O)N(C)C)cc3)o2)c1OC | 829 |
| CC(C)CCN1C[C@@H]2C(=O)N(CCN3CCc4ccccc4C3)C(=O)[C@@H]2C1 | 561 |
| Cc1nn(-c2nc(-c3ccc(F)cc3)cs2)c(C)c1CC(=O)N1CCCCCC1 | 1210 |
| CCn1cc(-c2nc(CC(=O)Nc3ccc(F)c(Cl)c3)cs2)c2cccnc21 | 1020 |
| O=C(CCc1csc(NC(=O)Nc2ccccc2)n1)Nc1nc2ccccc2s1 | 864 |
| CCN(CC)CCCNC(=O)c1ccc2c(c1)N(C)C(=O)C1CCCCN21 (stereo not given) | 608 |
| Cc1cc(C(=O)NCC2CCN(C(=O)NC(C)(C)C)CC2)c(C)o1 | 699 |
| CCOC(=O)c1c(S(=O)(=O)N2CCC(C(=O)Nc3ccc(F)cc3C)CC2)c(C)n(C)c1C | 897 |
| CCc1cccc(NC(=O)Cn2nc(N3CCC(C)CC3)c3ccccc3c2=O)c1 | 1220 |
| CCC1Oc2ccc(S(=O)(=O)N3CCC(C(=O)NCc4cccs4)CC3)cc2NC1=O (stereo not given) | 807 |
| CCCN1C(=O)c2ccccc2Sc2cc(-c3noc(C(C)NC(=O)c4ccco4)n3)ccc21 (stereo not given) | 984 |
| CC(C)NC(=O)N1CCCC(c2nc(C(C)C)no2)CCNC(=O)CC1 (stereo not given) | 658 |
| Cc1oc(-c2ccc(C(=O)NCCCN3CCOCC3)cc2)nc1CN1CCc2ccccc21 | 603 |
| COc1cccc(-c2nc(C3CCN(C(=O)c4cc5ccccc5[nH]4)CC3)no2)c1 | 1040 |
| CCOc1cc(CNC(=O)C2CCCN(C(=O)c3[nH]c(C)cc3C)C2)cc(OCC)c1OCC (stereo not given) | 876 |

| Structure (SMILES) | RP-LC retention time [s] |
| --- | --- |
| CCCCS(=O)(=O)N1CCC(C2CCN(C(=O)NC)CC2)C1 (stereo not given) | 682 |
| CCn1nc(C(=O)Nc2nc3c(s2)CCc2ccccc2-3)cc1C | 1060 |
| Cc1cnc(C2CC2)n1CCNC(=O)C1CC(=O)N(C2CCCCC2)C1 (stereo not given) | 594 |
| COc1ccc(-c2nc3ncccn3c2NCc2ccccc2)cc1 | 717 |
| COc1ccc(-c2cc(N3CCN(C(=O)Nc4cc(OC)cc(OC)c4)CC3)ncn2)cc1 | 672 |
| CCc1nc(-c2csc(S(=O)(=O)N3CCC(C(=O)NCc4cccnc4)CC3)c2)no1 | 645 |
| CC1(C)C(=O)N(CC(=O)Nc2ccc3c(c2)OCCO3)c2ccccc21 | 823 |
| O=C(c1ccc(F)cc1)N1CCC2(CC1)OCC(C(=O)N1CCCC1)N2C(=O)c1cccc(F)c1 (stereo not given) | 715 |
| CCOC(=O)c1noc2ncnc(Nc3cc(C)ccc3OC)c12 | 1060 |
| Cc1noc(-c2ccc(OC3CN(C(=O)NCC(C)C)C3)cc2)n1 | 781 |
| CCc1ccc(CNC(=O)C2Cc3cc(S(=O)(=O)N4CCCCC4)ccc3N2C(C)=O)cc1 (stereo not given) | 983 |
| COc1cccc(CNC(=O)C2(C)CCCN(C(=O)Nc3cc(Cl)c(OC)cc3OC)C2)c1 (stereo not given) | 900 |
| Cc1cc(Cl)ccc1OCC(=O)N1CCn2c(nnc2C(C)C)C1 | 665 |
| CCCNC(=O)N1CCCN(S(C)(=O)=O)CC1 | 582 |
| COCc1ccc(C(=O)Nc2nnc(C)s2)o1 | 595 |
| CC(C)c1c(C2CCN(C(=O)C3(c4ccccc4)CC3)CC2)noc1N | 813 |
| CC(=O)N1CCc2cc(N3CC(C(=O)Nc4ccc(Cl)cc4C)CC3=O)ccc21 (stereo not given) | 735 |
| CCOc1ccc(S(=O)(=O)Nc2cccc(-c3cn4cccc(C)c4n3)c2)cc1 | 666 |
| O=C(NCc1cccc(Cl)c1)c1ccc(CN2CCN(C3CCCC3)C(=O)C2=O)cc1 | 785 |
| Cc1ccc(C)c(N2CCN(c3ccnc(SCC(=O)Nc4cccc(C)c4C)n3)CC2)c1 | 1000 |
| Cc1nn2c(CNC(=O)c3ccccn3)c(-c3ccccc3)nc2s1 | 796 |
